Test results from ChEMBL document CHEMBL5584264 (Bioorg Med Chem Lett, 2024).

Experiments:
RAW264.7 [1] = experiment: Antiinflammatory activity against LPS-induced mouse RAW264.7 cells assessed as reduction in TNF-alpha level at 1 uM preincubated with compound for 1 hr followed by LPS-induction and measured after 24 hrs by ELISA analysis relative to control; format: functional; set-up: scale not given: the % may be the effect or the level left; conditions: time 25 hrs
RAW264.7 [2] = experiment: Antiinflammatory activity against LPS-induced mouse RAW264.7 cells assessed as cell viability at 10 uM by celltiter-blue cell viability assay; format: functional; conditions: read-out: Activity
RAW264.7 [3] = experiment: Antiinflammatory activity against LPS-induced mouse RAW264.7 cells assessed as reduction in TNF-alpha level at 10 uM preincubated with compound for 1 hr followed by LPS-induction and measured after 24 hrs by ELISA analysis relative to control; format: functional; set-up: scale not given: the % may be the effect or the level left; conditions: time 25 hrs
RAW264.7 [4] = experiment: Antiinflammatory activity against LPS-induced mouse RAW264.7 cells assessed as cell viability at 1 uM by celltiter-blue cell viability assay; format: functional; conditions: read-out: Activity
RAW264.7 [5] = experiment: Antiinflammatory activity against LPS-induced mouse RAW264.7 cells assessed as reduction in nitrite level at 30 uM preincubated with compound for 1 hr followed by LPS-induction and measured after 24 hrs by Fluorometric Assay relative to control; format: functional; set-up: scale not given: the % may be the effect or the level left; conditions: time 25 hrs
RAW264.7 [6] = experiment: Antiinflammatory activity against LPS-induced mouse RAW264.7 cells assessed as reduction in nitrite level at 10 uM preincubated with compound for 1 hr followed by LPS-induction and measured after 24 hrs by Fluorometric Assay relative to control; format: functional; set-up: scale not given: the % may be the effect or the level left; conditions: time 25 hrs
RAW264.7 [7] = experiment: Antiinflammatory activity against LPS-induced mouse RAW264.7 cells assessed as reduction in IL-6 level at 30 uM preincubated with compound for 1 hr followed by LPS-induction and measured after 24 hrs by ELISA analysis relative to control; format: functional; set-up: scale not given: the % may be the effect or the level left; conditions: time 25 hrs
RAW264.7 [8] = experiment: Antiinflammatory activity against LPS-induced mouse RAW264.7 cells assessed as reduction in TNF-alpha level at 30 uM preincubated with compound for 1 hr followed by LPS-induction and measured after 24 hrs by ELISA analysis relative to control; format: functional; set-up: scale not given: the % may be the effect or the level left; conditions: time 25 hrs
RAW264.7 [9] = experiment: Antiinflammatory activity against LPS-induced mouse RAW264.7 cells assessed as cell viability at 30 uM by celltiter-blue cell viability assay; format: functional; conditions: read-out: Activity
RAW264.7 [10] = experiment: Antiinflammatory activity against LPS-induced mouse RAW264.7 cells assessed as reduction in IL-6 level at 10 uM preincubated with compound for 1 hr followed by LPS-induction and measured after 24 hrs by ELISA analysis relative to control; format: functional; set-up: scale not given: the % may be the effect or the level left; conditions: time 25 hrs
RAW264.7 [11] = experiment: Antiinflammatory activity against LPS-induced mouse RAW264.7 cells assessed as reduction in nitrite level preincubated with compound for 1 hr followed by LPS-induction and measured after 24 hrs by Fluorometric Assay; format: functional, cell-based; conditions: dose 1-30 µM, time 25.0 hrs
RAW264.7 [12] = experiment: Antiinflammatory activity against LPS-induced mouse RAW264.7 cells assessed as reduction in IL-6 level at 1 uM preincubated with compound for 1 hr followed by LPS-induction and measured after 24 hrs by ELISA analysis relative to control; format: functional; set-up: scale not given: the % may be the effect or the level left; conditions: time 25 hrs
RAW264.7 [13] = experiment: Antiinflammatory activity against LPS-induced mouse RAW264.7 cells assessed as reduction in IL-6 level preincubated with compound for 1 hr followed by LPS-induction and measured after 24 hrs by ELISA analysis; format: functional, cell-based; conditions: dose 1-30 µM, time 25.0 hrs
[14] = target: Sigma intracellular receptor 2 (Homo sapiens, UniProt Q5BJF2); experiment: Displacement of [3H]DTG from sigma-2 receptor (unknown origin) assessed as inhibition constant
[15] = target: Protein cereblon/DNA damage-binding protein 1 (Homo sapiens) (UniProt Q96SW2+Q16531); experiment: Displacement of Cy5-tagged thalidomide-like probe from human CRBN/DDB1 complex by fluorescence polarization based CRBN binding assay; format: protein assay
RAW264.7 [16] = experiment: Antiinflammatory activity against LPS-induced mouse RAW264.7 cells assessed as reduction in nitrite level at 1 uM preincubated with compound for 1 hr followed by LPS-induction and measured after 24 hrs by Fluorometric Assay relative to control; format: functional; set-up: scale not given: the % may be the effect or the level left; conditions: time 25 hrs
[17] = target: 5-hydroxytryptamine receptor 2B (Homo sapiens, UniProt P41595); experiment: Displacement of [3H]DTG from 5HT2B receptor (unknown origin) assessed as inhibition constant
[18] = target: 5-hydroxytryptamine receptor 2A (Homo sapiens, UniProt P28223); experiment: Displacement of [3H]DTG from 5HT2A receptor (unknown origin) assessed as inhibition constant
[19] = target: Serotonin 3 (5-HT3) receptor; experiment: Displacement of [3H]DTG from 5HT3 receptor (unknown origin) assessed as inhibition constant; format: protein-complex assay, Homo sapiens

Chain of 5-hydroxytryptamine receptor 2B (P41595 whole entry): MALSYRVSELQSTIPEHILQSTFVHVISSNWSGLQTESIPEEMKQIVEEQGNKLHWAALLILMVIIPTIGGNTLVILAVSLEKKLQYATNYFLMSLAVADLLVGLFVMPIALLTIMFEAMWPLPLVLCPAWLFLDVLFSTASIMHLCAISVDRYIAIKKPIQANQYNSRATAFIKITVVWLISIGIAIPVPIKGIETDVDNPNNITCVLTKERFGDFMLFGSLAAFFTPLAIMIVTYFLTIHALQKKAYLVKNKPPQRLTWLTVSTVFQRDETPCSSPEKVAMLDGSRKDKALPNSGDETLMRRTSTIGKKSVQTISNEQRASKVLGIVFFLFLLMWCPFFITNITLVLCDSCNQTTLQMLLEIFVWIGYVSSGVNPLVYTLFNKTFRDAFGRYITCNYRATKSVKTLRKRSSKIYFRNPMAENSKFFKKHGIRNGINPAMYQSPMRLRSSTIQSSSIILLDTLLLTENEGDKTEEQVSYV
Chain of Protein cereblon/DNA damage-binding protein 1 (Homo sapiens) (Q16531 2-1140 partner limits assumed): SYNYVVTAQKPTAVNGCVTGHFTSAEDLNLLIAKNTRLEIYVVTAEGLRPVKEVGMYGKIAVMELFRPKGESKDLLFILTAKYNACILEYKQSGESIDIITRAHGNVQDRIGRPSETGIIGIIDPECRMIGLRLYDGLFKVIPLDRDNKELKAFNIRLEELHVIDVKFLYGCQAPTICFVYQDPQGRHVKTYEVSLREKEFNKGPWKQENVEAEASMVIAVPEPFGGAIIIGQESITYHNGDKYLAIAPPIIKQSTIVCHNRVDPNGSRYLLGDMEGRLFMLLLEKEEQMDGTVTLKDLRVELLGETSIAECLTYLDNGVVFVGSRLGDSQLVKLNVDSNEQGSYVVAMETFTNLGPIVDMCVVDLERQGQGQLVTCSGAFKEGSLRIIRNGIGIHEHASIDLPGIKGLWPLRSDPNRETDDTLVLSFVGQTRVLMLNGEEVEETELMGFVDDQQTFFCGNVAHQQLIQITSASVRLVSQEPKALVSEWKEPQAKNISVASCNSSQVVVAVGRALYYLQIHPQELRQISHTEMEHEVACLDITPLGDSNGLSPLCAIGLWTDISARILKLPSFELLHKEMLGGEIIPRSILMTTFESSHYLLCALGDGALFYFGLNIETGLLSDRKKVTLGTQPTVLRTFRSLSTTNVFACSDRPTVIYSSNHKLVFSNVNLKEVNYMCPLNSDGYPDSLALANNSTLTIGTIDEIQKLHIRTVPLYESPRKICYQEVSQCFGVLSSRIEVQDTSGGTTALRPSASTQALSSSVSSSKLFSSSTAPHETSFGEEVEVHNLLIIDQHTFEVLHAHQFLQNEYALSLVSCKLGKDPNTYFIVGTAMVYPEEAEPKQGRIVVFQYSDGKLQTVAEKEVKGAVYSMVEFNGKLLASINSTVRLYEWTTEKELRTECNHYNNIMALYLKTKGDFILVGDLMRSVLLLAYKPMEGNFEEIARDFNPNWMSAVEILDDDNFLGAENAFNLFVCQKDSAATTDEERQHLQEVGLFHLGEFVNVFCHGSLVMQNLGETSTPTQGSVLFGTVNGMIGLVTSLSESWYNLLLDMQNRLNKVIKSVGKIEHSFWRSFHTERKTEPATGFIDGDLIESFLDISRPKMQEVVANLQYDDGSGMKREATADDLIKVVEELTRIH
Chain of Protein cereblon/DNA damage-binding protein 1 (Homo sapiens) (Q96SW2 whole entry): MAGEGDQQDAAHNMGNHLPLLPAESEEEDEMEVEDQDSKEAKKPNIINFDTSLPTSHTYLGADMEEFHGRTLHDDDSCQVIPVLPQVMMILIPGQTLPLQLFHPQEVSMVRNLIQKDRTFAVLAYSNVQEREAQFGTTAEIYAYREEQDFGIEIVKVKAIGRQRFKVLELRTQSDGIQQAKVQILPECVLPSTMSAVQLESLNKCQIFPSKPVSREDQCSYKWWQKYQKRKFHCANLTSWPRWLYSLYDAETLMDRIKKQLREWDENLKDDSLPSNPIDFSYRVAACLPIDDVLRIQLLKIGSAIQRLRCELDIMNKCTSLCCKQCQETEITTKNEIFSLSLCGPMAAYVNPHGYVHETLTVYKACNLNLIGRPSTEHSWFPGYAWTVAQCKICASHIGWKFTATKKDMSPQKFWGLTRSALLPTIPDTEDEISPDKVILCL
Chain of 5-hydroxytryptamine receptor 2A (P28223 whole entry): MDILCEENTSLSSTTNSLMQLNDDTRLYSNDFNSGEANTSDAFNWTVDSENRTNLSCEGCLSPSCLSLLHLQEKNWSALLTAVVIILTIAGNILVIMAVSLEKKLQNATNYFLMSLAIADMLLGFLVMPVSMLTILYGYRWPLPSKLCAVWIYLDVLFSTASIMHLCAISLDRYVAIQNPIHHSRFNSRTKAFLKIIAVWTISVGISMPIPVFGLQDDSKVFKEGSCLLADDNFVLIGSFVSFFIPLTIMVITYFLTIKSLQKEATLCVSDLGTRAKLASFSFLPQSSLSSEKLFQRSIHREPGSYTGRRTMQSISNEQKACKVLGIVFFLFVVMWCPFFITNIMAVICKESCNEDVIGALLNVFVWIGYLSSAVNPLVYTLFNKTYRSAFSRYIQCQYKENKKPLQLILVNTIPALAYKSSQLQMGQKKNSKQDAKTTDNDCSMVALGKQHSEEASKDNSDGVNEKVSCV
Chain of Sigma intracellular receptor 2 (Q5BJF2 whole entry): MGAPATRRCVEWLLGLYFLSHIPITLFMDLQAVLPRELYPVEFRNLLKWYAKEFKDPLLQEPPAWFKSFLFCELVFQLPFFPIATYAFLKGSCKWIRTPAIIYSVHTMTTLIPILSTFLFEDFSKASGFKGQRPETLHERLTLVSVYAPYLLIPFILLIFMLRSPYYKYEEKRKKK

SMILES | Activity (RAW264.7 [1]) [%] | viability at 10 µM (RAW264.7 [2]) [%] | Activity (RAW264.7 [3]) [%] | viability at 1 µM (RAW264.7 [4]) [%] | Activity (RAW264.7 [5]) [%] | Activity (RAW264.7 [6]) [%] | Activity (RAW264.7 [7]) [%] | Activity (RAW264.7 [8]) [%] | viability at 30 µM (RAW264.7 [9]) [%] | Activity (RAW264.7 [10]) [%] | Activity (RAW264.7 [11]) | Activity (RAW264.7 [12]) [%] | Activity (RAW264.7 [13]) | Ki [14] [µM] | Activity [15] | Activity (RAW264.7 [16]) [%] | Ki [17] [µM] | Ki [18] [µM] | Ki [19] [µM]
CN1CCC[C@@H](N2C(=O)c3cccc(N)c3C2=O)C1 | 108 | 100 | 100 | 100 | 95 | 101 |  |  |  |  |  |  |  |  |  |  |  |  | 
Nc1cccc2c1C(=O)N([C@@H]1CCCNC1)C2=O |  | 103 | 95 | 100 | 68 | 87 | 60 | 91 | 114 | 72 | Dose-Dependent Effect | 108 | Dose-Dependent Effect |  |  |  |  |  | 
Nc1cccc2c1C(=O)N(C1CCCNC1)C2=O (racemic) |  | 99 |  | 100 | 83 | 91 | 82 | 104 | 105 | 88 | Dose-Dependent Effect | 83 |  | 2.2 | Dose-Dependent Effect | 97 | 0.561 |  | 
CC(C)N1CCC[C@H](N2C(=O)c3cccc(N)c3C2=O)C1 | 107 | 100 | 115 | 100 | 108 | 100 |  | 115 | 102 |  |  |  |  |  |  | 112 |  |  | 
CC(C)N1CCCC(N2C(=O)c3cccc(N)c3C2=O)C1 (racemic) | 100 | 100 | 109 | 105 | 123 | 100 |  | 103 | 95 |  |  |  |  |  |  | 109 |  |  | 
CN1CCC[C@H](N2C(=O)c3cccc(N)c3C2=O)C1 |  | 111 |  | 110 |  |  |  | 106 |  |  | Dose-Dependent Effect |  |  |  |  |  |  |  | 
CS(=O)(=O)N1CCCC(N2C(=O)c3cccc(N)c3C2=O)C1 (centres undefined) | 98 | 103 | 99 | 103 | 95 | 103 | 116 | 96 | 103 | 112 |  | 111 |  |  | Dose-Dependent Effect | 92 | > 10 | > 10 | > 10
CC(C)N1CCC[C@@H](N2C(=O)c3cccc(N)c3C2=O)C1 | 106 | 99 | 110 | 96 | 153 | 99 |  | 114 | 90 |  |  |  |  |  |  | 126 |  |  | 
